Experimental data published in patent US9079895B2, “Morpholino compounds, uses and methods” (University of Dundee, priority 2012, dated 2015).

Columns and labels:
Conditions in all cases: average of at least two experiments
5HT1a receptor = 5HT1a receptor (Homo sapiens (Human), UniProt P08908); assay: Secondary radioligand binding assay, 5HT1a
Procedure: (§8) Assay Buffer: Standard Binding Buffer (50 mM Tris-HCl, 10 mM MgCl2, 1 mM EDTA, pH 7.4)
(§9) Membrane Fraction Source: Transiently or stably transfected cell lines (e.g., HEK293, COS, CHO, NIH3T3)

5HT1d receptor = 5HT1d receptor (Homo sapiens (Human), UniProt P28221); assay: Secondary radioligand binding assay, 5HT1d; parameters: key to Ki 5HT1d: “—” indicates that a binding interaction was not detected;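 further: competition binding against a radioligand on membranes from transfected cell lines, 1.5 h at room temperature, filter-retained radioactivity counted by liquid scintillation, total binding plotted versus log competitor concentration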
5HT1d receptor, sequence (P28221 whole entry): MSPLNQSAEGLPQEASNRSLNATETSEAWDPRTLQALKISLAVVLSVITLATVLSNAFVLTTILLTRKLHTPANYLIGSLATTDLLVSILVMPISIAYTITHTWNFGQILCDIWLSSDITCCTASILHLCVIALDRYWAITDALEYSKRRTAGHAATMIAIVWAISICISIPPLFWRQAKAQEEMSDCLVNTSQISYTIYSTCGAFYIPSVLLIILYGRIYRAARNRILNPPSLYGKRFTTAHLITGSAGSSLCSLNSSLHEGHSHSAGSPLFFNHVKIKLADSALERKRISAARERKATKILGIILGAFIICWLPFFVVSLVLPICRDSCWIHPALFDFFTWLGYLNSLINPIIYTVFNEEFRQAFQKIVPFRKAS

5HT1e receptor = 5HT1e receptor (Homo sapiens (Human), UniProt P28566); assay: Secondary radioligand binding assay, 5HT1e; parameters: key: “—” indicates that a binding interaction was not detected;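 further: competition binding against a radioligand on membranes from transfected cell lines, 1.5 h at room temperature, bound radioactivity counted by liquid scintillation after filtration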
5HT1e receptor, sequence (P28566 whole entry): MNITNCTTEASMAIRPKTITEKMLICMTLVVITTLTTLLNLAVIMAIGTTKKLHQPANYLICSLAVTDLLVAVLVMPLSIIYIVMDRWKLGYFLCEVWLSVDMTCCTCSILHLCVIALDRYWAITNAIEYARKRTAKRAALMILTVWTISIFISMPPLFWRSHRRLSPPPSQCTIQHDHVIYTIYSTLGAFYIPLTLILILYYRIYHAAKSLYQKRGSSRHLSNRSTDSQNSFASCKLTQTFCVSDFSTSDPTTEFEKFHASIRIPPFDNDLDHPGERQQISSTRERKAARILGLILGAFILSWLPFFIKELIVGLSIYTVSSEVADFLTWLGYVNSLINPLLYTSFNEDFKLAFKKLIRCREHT
Procedure: as §8, §9

5HT2b receptor = 5HT2b receptor (Homo sapiens (Human), UniProt P41595); assay: Secondary radioligand binding assay, 5HT2b; parameters: key to Ki 5HT2b: “—” indicates that a binding interaction was not detected;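 further: competition binding against a radioligand on membranes from transfected cell lines, 1.5 h incubation at room temperature, filter-retained radioactivity counted by liquid scintillation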
5HT2b receptor, sequence (P41595 whole entry): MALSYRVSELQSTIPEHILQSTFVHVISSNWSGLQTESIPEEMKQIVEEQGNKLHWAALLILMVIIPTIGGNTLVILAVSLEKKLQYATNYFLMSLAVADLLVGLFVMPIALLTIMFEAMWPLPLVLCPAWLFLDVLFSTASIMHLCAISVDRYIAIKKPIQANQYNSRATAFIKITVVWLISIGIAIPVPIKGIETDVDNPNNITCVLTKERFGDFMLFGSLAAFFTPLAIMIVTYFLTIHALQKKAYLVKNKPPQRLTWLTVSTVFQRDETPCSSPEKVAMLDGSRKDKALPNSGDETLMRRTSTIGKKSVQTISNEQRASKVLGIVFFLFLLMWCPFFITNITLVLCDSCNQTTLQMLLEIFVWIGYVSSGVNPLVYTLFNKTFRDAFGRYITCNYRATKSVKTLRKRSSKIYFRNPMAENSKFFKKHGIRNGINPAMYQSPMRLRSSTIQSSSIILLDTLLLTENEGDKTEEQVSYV
Procedure: as §8, §9

5HT3 receptor = 5HT3 receptor (Homo sapiens (Human), UniProt P46098); assay: Secondary radioligand binding assay, 5HT3; parameters: key: “—” indicates that a binding interaction was not detected;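 further: radioligand competition binding on membranes from transfected cell lines, 1.5 h incubation at room temperature, filter-retained radioactivity measured by liquid scintillation counting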
5HT3 receptor, sequence (P46098 24-478): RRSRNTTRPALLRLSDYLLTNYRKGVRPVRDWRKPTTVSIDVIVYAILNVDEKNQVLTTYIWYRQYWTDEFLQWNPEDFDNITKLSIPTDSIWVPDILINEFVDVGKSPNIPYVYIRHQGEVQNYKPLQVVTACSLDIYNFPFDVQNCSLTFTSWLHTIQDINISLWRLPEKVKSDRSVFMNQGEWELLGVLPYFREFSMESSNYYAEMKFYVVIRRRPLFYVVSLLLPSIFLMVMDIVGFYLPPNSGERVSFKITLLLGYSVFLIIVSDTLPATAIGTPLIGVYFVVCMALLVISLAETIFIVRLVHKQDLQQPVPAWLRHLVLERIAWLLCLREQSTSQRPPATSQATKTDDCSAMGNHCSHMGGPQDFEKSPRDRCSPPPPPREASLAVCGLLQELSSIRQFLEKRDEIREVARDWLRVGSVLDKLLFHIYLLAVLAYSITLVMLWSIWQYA
Procedure: as §8, §9

5HT6 receptor = 5HT6 receptor (Homo sapiens (Human), UniProt P50406); assay: Secondary radioligand binding assay, 5HT6; parameters: key: “—” indicates that a binding interaction was not detected;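 further: competition displacement of radioligand from membranes of transfected cell lines expressing the receptor, 1.5 h at room temperature, bound radioactivity counted by scintillation after filtration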
5HT6 receptor, sequence (P50406 whole entry): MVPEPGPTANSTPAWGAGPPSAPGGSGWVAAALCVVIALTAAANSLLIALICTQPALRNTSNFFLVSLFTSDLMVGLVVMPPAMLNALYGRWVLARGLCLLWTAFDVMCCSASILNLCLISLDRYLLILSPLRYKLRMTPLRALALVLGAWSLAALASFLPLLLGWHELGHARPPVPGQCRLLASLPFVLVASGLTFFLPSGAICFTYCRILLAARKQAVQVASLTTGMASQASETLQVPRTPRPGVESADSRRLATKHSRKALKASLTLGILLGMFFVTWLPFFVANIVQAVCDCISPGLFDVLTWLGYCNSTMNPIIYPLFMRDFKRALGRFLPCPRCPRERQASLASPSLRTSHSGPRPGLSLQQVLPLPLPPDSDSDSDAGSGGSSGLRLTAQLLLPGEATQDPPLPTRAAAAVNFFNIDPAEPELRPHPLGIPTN
Procedure: as §8, §9

5HT7 receptor = 5HT7 receptor (Homo sapiens (Human), UniProt P34969); assay: Secondary radioligand binding assay, 5HT7; parameters: key to Ki 5HT7: “—” indicates that a binding interaction was not detected;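 further: competition of test compound with radioligand for binding to membranes from transfected cell lines, 1.5 h incubation at room temperature, filter-bound radioactivity read by liquid scintillation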
5HT7 receptor, sequence (P34969 whole entry): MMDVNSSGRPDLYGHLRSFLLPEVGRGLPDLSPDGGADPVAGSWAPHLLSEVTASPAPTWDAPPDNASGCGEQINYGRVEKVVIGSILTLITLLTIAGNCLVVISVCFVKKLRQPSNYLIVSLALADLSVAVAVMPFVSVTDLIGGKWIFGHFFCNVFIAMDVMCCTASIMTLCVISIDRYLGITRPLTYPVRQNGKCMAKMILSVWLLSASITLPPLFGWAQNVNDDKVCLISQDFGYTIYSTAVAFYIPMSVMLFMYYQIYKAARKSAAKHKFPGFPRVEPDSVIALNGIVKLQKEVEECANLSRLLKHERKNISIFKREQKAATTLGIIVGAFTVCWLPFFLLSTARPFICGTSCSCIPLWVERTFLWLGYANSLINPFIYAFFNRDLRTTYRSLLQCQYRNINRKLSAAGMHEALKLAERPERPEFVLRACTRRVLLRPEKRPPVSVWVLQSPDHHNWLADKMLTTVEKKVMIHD

[1] = target: Alpha1B adrenergic receptor (Homo sapiens (Human), UniProt P35368); assay: Secondary radioligand binding assay, Alpha1B; parameters: key to Ki Alpha1B: “—” indicates that a binding interaction was not detected
Alpha1B adrenergic receptor, sequence (P35368 whole entry): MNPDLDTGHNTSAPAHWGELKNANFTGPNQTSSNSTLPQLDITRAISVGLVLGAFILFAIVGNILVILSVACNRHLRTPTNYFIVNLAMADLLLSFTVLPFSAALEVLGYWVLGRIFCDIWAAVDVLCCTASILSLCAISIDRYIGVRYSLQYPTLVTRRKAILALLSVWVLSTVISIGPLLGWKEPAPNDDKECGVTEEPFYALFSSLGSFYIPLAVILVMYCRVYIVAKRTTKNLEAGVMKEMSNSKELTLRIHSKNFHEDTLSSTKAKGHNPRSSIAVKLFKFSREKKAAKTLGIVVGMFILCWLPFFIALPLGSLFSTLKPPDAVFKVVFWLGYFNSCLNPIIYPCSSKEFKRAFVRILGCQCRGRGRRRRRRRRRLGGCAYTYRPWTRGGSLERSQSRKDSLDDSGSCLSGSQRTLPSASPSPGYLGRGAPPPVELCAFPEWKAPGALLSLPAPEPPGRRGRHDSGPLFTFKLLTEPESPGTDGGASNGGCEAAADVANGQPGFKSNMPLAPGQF
Description: 1. Secondary Radioligand Binding Assays The detailed experimental protocols for the radioligand and functional receptor assays are available on the NIMH PDSP website at http://pdsp.med.unc.edu/UNC-CH %20Protocol %20Book.pdf. Raw data (dpm) representing total radioligand binding (i.e. specific+non-specific binding) are plotted as a function of the logarithm of the molar concentration of the competitor (i.e. test or reference compound). […] C. Adrenergic Receptors: α1A, α1B, α2A, α2B, α2C, β1, β2, β3 Assay Buffers: For α1 receptors, α1 Binding Buffer (20 mM Tris-HCl, 145 mM NaCl, pH 7.4); for α2 receptors, α2 Binding Buffer (50 mM Tris-HCl, 5 mM MgCl2, pH 7.7); for β receptors, β Binding Buffer (50 mM Tris-HCl, 3 mM MnCl2, pH 7.7) Membrane Fraction Source: Transiently or stably transfected cell lines (e.g. HEK293, COS, CHO, NIH3T3) Protocol adapted from Arango et al. […] (1990), Gen. Psychiatry, 47: 1038-1047. The method is carried out in the manner described for the serotonin receptor assay above, except where described below. Eleven dilutions (5× assay concentration) of the test and reference (see Table 20) compounds are prepared in the appropriate buffer by serial dilution, as previously described. Radioligand is diluted to five times the assay concentration (see Table 21) in the appropriate buffer. […] Four rapid 500-μl washes are performed with chilled distilled water (for α1 and β receptors) or 0.1% polyethyleneimine (for α2 receptors) to reduce non-specific binding. Filters are placed in 6 ml scintillation tubes and allowed to dry overnight and the samples are treated to obtain data as described above. [table]

dopamine D1 receptor = dopamine D1 receptor (Homo sapiens (Human), UniProt P21728); assay: Secondary radioligand binding assay, D1; parameters: key to Ki D1: “—” indicates that a binding interaction was not detected
dopamine D1 receptor, sequence (P21728 whole entry): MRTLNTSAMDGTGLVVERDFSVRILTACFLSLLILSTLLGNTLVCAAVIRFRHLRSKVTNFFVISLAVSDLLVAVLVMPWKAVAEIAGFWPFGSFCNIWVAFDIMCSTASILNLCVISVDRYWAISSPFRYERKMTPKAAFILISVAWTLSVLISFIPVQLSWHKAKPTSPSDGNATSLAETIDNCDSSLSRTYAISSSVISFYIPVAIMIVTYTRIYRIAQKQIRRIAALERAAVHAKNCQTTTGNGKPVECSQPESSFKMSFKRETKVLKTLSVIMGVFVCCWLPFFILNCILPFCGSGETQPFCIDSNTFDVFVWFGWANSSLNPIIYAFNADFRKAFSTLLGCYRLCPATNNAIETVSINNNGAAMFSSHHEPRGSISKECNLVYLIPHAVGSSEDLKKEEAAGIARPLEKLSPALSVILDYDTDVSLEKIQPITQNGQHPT
Procedure: (§1) 1. Secondary Radioligand Binding Assays
(§2) The detailed experimental protocols for the radioligand and functional receptor assays are available on the NIMH PDSP website at http://pdsp.med.unc.edu/UNC-CH %20Protocol %20Book.pdf.
(§3) Radioligand is diluted to five times the assay concentration (see Table 18) in Standard Binding Buffer. Typically, the assay concentration of radioligand is a value between one half the KD and the KD of a particular radioligand at its target. 50 μl aliquots of radioligand are dispensed into the wells of a 96-well plate containing 100 μl of Standard Binding Buffer. Then, duplicate 50 μl aliquots of the test and reference compound dilutions are added.
(§4) The 250 μl reactions are incubated at room temperature and shielded from light (to prevent photolysis of light-sensitive ligands) for 1.5 hours, then harvested by rapid filtration onto Whatman GF/B glass fiber filters pre-soaked with 0.3% polyethyleneimine using a 96-well Brandel harverster. Four rapid 500 μl washes are performed with chilled Standard Binding Buffer to reduce non-specific binding. Filters are placed in 6 ml scintillation tubes and allowed to dry overnight. The next day, 4 ml of EcoScint scintillation cocktail (National Diagnostics) are added to each tube. The tubes are capped, labeled, and counted by liquid scintillation counting. […] The filter mats are dried, then scintillant is melted onto the filters and the radioactivity retained on the filters is counted in a Microbeta scintillation counter.
(§5) Raw data (dpm) representing total radioligand binding (i.e. specific+non-specific binding) are plotted as a function of the logarithm of the molar concentration of the competitor (i.e. test or reference compound).
(§6) B. Dopamine Receptors: D1, D2, D3, D4, D5 Assay Buffers: Dopamine Binding Buffer (50 mM NaCl, 50 mM HEPES-HCl, 5 mM MgCl2, 0.5 mM EDTA, pH 7.4) Membrane Fraction Source: Transiently or stably transfected cell lines (e.g. HEK293, COS, CHO, NIH3T3)
(§7) The method is carried out in the manner described for the serotonin receptor assay above. Eleven dilutions (5× assay concentration) of the test and reference (see Table 19) compounds are prepared in Dopamine Binding Buffer by serial dilution, as previously described. Radioligand is diluted to five times the assay concentration (see Table 20) in Dopamine Binding Buffer.

dopamine D5 receptor = dopamine D5 receptor (Homo sapiens (Human), UniProt P21918); assay: Secondary radioligand binding assay, D5; parameters: key to Ki D5: “—” indicates that a binding interaction was not detected
dopamine D5 receptor, sequence (P21918 whole entry): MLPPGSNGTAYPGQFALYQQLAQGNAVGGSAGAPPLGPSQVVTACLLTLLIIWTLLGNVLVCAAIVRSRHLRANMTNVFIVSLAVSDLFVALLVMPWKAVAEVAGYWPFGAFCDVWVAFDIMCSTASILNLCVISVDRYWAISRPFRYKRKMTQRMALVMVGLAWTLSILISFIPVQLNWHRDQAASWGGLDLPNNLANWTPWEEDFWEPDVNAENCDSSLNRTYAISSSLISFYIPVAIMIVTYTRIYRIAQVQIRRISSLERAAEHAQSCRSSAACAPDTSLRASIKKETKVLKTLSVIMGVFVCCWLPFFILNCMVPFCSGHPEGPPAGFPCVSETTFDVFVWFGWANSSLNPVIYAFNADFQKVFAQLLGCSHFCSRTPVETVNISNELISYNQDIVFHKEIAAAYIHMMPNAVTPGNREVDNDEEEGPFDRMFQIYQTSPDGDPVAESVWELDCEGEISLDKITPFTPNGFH
Procedure: as §1, §2, §3, §4, §5, §6, §7

5HT1a receptor, sequence (P08908 whole entry): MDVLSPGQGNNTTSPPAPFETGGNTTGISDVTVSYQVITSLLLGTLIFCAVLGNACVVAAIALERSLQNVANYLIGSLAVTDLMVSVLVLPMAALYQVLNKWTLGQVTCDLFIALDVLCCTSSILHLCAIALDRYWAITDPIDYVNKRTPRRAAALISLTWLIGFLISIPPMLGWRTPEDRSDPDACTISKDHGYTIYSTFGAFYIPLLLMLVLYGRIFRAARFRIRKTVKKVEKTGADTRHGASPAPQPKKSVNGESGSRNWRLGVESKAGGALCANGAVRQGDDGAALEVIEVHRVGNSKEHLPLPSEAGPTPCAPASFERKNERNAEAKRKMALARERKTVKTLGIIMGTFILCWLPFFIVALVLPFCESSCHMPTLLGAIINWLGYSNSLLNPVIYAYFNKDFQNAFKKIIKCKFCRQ

| Structure (SMILES) | Ki (5HT1a receptor) [µM] | Ki 5HT1d (5HT1d receptor) | Ki 5HT1e (5HT1e receptor) | Ki 5HT2b (5HT2b receptor) | Ki 5HT3 (5HT3 receptor) | Ki 5HT6 (5HT6 receptor) | Ki 5HT7 (5HT7 receptor) | Ki Alpha1B [1] | Ki D1 (dopamine D1 receptor) | Ki D5 (dopamine D5 receptor) | Ki (5HT2b receptor) [µM] | Ki (dopamine D1 receptor) [µM] | Ki (5HT7 receptor) [µM] |
| --- | --- | --- | --- | --- | --- | --- | --- | --- | --- | --- | --- | --- | --- |
| Cc1ncccc1OC[C@H]1CN(CC(=O)N2c3ccccc3C[C@H]2C)CCO1 [Compound 63] | 5.02 | — | — | — | — | — | — | — | — | — |  |  |  |
| C[C@@H]1Cc2ccccc2N1C(=O)CN1CCO[C@@H](COc2ccncc2)C1 [Compound 67] | > 10 | — | — | — | — | — | — | — | — | — |  |  |  |
| O=C(CN1CCO[C@@H](COc2ccccn2)C1)N1CCc2ccccc21 [Compound 14r, (R)-1-(Indolin-1-yl)-2-(2-((pyridin-2-yloxy)methyl)morpholino)ethanone] |  | — | — | — | — | — | — | — | — | — |  |  |  |
| Cc1ncccc1OC[C@H]1CN(CC(=O)N2c3ccccc3CC2C)CCO1 (stereo partly drawn) [Compound 62] | 6.59 | — | — |  | — | — | — | — | — | — | 5.18 |  |  |
| Cc1ccnc(OC[C@H]2CN(CC(=O)N3CCc4ccccc43)CCO2)c1 [Compound 16r] |  | — | — | — | — | — | — | — |  | — |  | > 10 |  |
| Cc1ncccc1OC[C@H]1CN(CCN2CCc3ccccc32)CCO1 [Compound 26r, (R)-4-(2-(Indolin-1-yl)ethyl)-2-(((2-methylpyridin-3-yl)oxy)methyl)morpholine] |  | — | — |  | — | — |  | — | — | — | 3.17 |  | > 10 |
| O=C(CN1CCO[C@H](COc2cccnc2)C1)N1CCc2ccccc21 [Compound 20s, (S)-1-(Indolin-1-yl)-2-(2-((pyridin-3-yloxy)methyl)morpholino)ethanone] |  | — | — |  | — | — | — | — | — | — | 7.64 |  |  |
| Cc1ncccc1OC[C@@H]1CN(CC(=O)N2c3ccccc3CC2C)CCO1.Cl (stereo partly drawn) [Compound 60] | 0.592 | — | — |  | — | — | — | — |  | — | 4.61 | > 10 |  |
| Cc1ccccc1OC[C@H]1CN(CC(=O)N2c3ccccc3CC2C)CCO1 (stereo partly drawn) [Compound 66] | 7.54 | — | — |  | — | — | — | — | — | — | 0.77 |  |  |
| Cc1ncccc1OC[C@@H]1CN(CC(=O)N2c3ccccc3C[C@H]2C)CCO1 [Compound 61] | 0.54 | — | — | — | — | — | — | — |  | — |  | > 10 |  |
| Clc1cncc(OC[C@@H]2CN(CCN3CCc4ccccc43)CCO2)c1 [Compound 27s, (S)-2-(((5-Chloropyridin-3-yl)oxy)methyl)-4-(2-(indolin-1-yl)ethyl)morpholine] |  | — | — | — | — | — | — | — |  | — |  | 5.85 |  |
| Clc1cncc(OC[C@H]2CN(CCN3CCc4ccccc43)CCO2)c1 [Compound 27r, (R)-2-(((5-Chloropyridin-3-yl)oxy)methyl)-4-(2-(indolin-1-yl)ethyl)morpholine] |  | — | — |  | — | — | — | — | — | — | 2.56 |  |  |
